The target in one assay is human recombinant BACE1 (Homo sapiens (Human), UniProt P56817). Nature of the assay: In vitro enzymatic BACE1 FRET assay. It is filed as biochemical. Particulars: read-out: IC50 IP (μM) BACE1 enzyme. An outline of the steps: (§1)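 Tris addition raises the pH to neutral to stop the reaction before fluorescence is measured at 590 nm emission with 488 nm excitation.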
The target in the next assay is human recombinant BACE2 (Homo sapiens (Human), UniProt Q9Y5Z0). Description: In vitro enzymatic BACE2 FRET assay. The class given is biochemical. Particulars: read-out: IC50 IP (μM) BACE2 enzyme. The method in brief: as §1
The target of the next assay is Recombinant Cat D (Homo sapiens (Human), UniProt P07339). Description: In vitro enzymatic Cathepsin D (Cat D) FRET assay. The class given is biochemical. The settings on record: read-out: IC50 IP (μM) CatD. The method in brief: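 Cleavage of a 20 nM fluorophore/quencher peptide by CHO-expressed recombinant Cat D proceeded for one hour at pH 3.5 (0.05 M citrate, 5 mM CHAPS, 10% DMSO final). Tris addition neutralized the pH to end the reaction. Fluorescence was then measured (ex 500 nm/em 580 nm).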

In assay [1] the test system is Aβ40 in conditioned medium of cells stably expressing Amyloid Precursor Protein (APP). Nature of the assay: In vitro BACE-1 cell-based assay (Aβ40 sandwich ELISA). Particulars: read-out: IC50 IP (μM) BACE1 cell. An outline of the steps:
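Read-out: time-resolved fluorescence (Streptavidin-Europium) of Aβ40 captured by pAb40 and detected with biotinylated 6E10 from supernatants of APP-stable cells. Cells were exposed to compound for 24 h, 10-point dose response, top dose 100 μM or 10 μM, 0.1% DMSO. IC50 fitted to percent of control.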
A general note: An ELISA detects its analyte on a solid surface through an enzyme-linked reagent.

What is called IC50 is the concentration needed to halve the response being measured.

Some results are limits rather than exact numbers.

Sequence of human recombinant BACE1 (P56817 46-501): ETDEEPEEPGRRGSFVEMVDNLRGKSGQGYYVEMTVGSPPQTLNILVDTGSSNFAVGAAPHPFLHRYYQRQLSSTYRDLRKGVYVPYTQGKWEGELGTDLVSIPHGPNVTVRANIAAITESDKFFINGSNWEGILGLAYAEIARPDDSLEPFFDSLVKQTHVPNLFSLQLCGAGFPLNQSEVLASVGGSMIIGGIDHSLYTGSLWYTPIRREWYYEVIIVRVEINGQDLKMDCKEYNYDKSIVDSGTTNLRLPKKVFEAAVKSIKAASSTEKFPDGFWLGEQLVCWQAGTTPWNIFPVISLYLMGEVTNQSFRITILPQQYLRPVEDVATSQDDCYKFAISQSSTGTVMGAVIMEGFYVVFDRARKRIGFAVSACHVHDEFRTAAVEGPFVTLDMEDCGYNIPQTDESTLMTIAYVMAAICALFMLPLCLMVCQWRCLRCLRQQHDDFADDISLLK
Sequence of Recombinant Cat D (P07339 65-412): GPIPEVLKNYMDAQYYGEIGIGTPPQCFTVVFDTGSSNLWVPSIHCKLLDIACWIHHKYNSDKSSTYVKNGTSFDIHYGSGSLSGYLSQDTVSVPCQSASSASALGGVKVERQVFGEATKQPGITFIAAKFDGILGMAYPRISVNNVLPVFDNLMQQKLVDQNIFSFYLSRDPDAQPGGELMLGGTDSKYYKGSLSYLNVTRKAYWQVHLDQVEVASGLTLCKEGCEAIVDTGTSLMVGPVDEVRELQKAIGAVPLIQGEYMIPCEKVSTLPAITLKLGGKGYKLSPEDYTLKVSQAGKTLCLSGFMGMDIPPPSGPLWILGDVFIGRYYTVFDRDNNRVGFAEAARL
Sequence of human recombinant BACE2 (Q9Y5Z0 63-518): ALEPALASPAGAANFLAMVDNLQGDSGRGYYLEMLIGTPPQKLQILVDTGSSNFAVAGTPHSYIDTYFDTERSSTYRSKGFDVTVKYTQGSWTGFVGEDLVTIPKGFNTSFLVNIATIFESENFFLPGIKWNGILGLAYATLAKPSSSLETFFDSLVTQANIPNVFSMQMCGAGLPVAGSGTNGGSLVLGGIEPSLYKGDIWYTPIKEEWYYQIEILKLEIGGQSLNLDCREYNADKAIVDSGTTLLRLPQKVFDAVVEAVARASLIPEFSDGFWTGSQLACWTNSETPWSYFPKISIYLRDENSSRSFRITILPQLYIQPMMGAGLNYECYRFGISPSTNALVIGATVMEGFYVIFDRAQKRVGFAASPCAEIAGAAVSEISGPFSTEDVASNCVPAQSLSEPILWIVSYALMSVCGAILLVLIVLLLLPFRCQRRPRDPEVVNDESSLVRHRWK

Regarding `CCOC[C@]12C[C@H]1[C@@](CF)(c1cc(NC(=O)c3ncc(C#N)cc3C)ccc1F)N=C(N)S2` [Example 715, N-(3-((1S,5S,6S)-3-amino-1-(ethoxymethyl)-5-(fluoromethyl)-2-thia-4-azabicyclo[4.1.0]hept-3-en-5-yl)-4-fluorophenyl)-5-cyano-3-methyl-2-pyridinecarboxamide], the IC50 at human recombinant BACE1 is 0.00409 µM; at human recombinant BACE2, 0.00881 µM; at Recombinant Cat D, 918 µM; in assay [1] it was 0.00635 µM.

As to `COC[C@]12C[C@H]1[C@@](CF)(c1cc(NC(=O)c3ncc(C#N)cc3C)ccc1F)N=C(N)S2` [Example 716, N-(3-((1S,5S,6S)-3-amino-5-(fluoromethyl)-1-(methoxymethyl)-2-thia-4-azabicyclo[4.1.0]hept-3-en-5-yl)-4-fluorophenyl)-5-cyano-3-methyl-2-pyridinecarboxamide], the half-maximal inhibitory concentration (IC50) on human recombinant BACE1 was 0.00216 µM; on human recombinant BACE2 it was 0.00196 µM; on Recombinant Cat D, 2290 µM; in assay [1], 0.00431 µM.

`COC[C@]12C[C@H]1[C@@](CF)(c1cc(Nc3nccc4cc(C#N)cnc34)ccc1F)N=C(N)S2` [Example 717, 8-((3-((1S,5S,6S)-3-amino-5-(fluoromethyl)-1-(methoxymethyl)-2-thia-4-azabicyclo[4.1.0]hept-3-en-5-yl)-4-fluorophenyl)amino)-1,7-naphthyridine-3-carbonitrile]: the IC50 is 0.0072 µM at human recombinant BACE1, 0.00332 µM on human recombinant BACE2, greater than 400 µM at Recombinant Cat D and 0.0239 µM in assay [1].

On to `N#CC[C@]12C[C@H]1[C@@](CF)(c1cc(NC(=O)c3ccc(Cl)cn3)ccc1F)N=C(N)S2` [Example 718, N-(3-((1R,5S,6S)-3-amino-1-(cyanomethyl)-5-(fluoromethyl)-2-thia-4-azabicyclo[4.1.0]hept-3-en-5-yl)-4-fluorophenyl)-5-chloro-2-pyridinecarboxamide], for which the IC50 on human recombinant BACE1 worked out at 0.00367 µM; at human recombinant BACE2, 0.00131 µM; at Recombinant Cat D, 921 µM; in assay [1], 0.04 µM.

In the case of `N#CC[C@]12C[C@H]1[C@@](CF)(c1cc(Nc3nccc4cc(C#N)cnc34)ccc1F)N=C(N)S2` [Example 719, 8-((3-((1R,5S,6S)-3-amino-1-(cyanomethyl)-5-(fluoromethyl)-2-thia-4-azabicyclo[4.1.0]hept-3-en-5-yl)-4-fluorophenyl)amino)-1,7-naphthyridine-3-carbonitrile], the IC50 on human recombinant BACE1 amounted to 0.00442 µM; at human recombinant BACE2, 0.00397 µM; at Recombinant Cat D, 1490 µM; in assay [1] it was 0.0138 µM.

For `C#CCOc1cnc2c(Nc3ccc(F)c([C@@]4(CF)N=C(N)S[C@@]5(CC#N)C[C@H]54)c3)nccc2n1` [Example 720, ((1R,5S,6S)-3-amino-5-(fluoromethyl)-5-(2-fluoro-5-((2-(2-propyn-1-yloxy)pyrido[3,4-b]pyrazin-5-yl)amino)phenyl)-2-thia-4-azabicyclo[4.1.0]hept-3-en-1-yl)acetonitrile], the IC50 on human recombinant BACE1 was 0.000935 µM; at human recombinant BACE2 it was 0.0273 µM; at Recombinant Cat D, 648 µM; in assay [1] it was 0.00151 µM.

With `N#CC[C@]12C[C@H]1[C@@](CF)(c1cc(Nc3nccc4nc(OCc5ncco5)cnc34)ccc1F)N=C(N)S2` [Example 721, ((1R,5S,6S)-3-amino-5-(fluoromethyl)-5-(2-fluoro-5-((2-(1,3-oxazol-2-ylmethoxy)pyrido[3,4-b]pyrazin-5-yl)amino)phenyl)-2-thia-4-azabicyclo[4.1.0]hept-3-en-1-yl)acetonitrile], the IC50 is 0.00162 µM on human recombinant BACE1, 0.0677 µM on human recombinant BACE2, 2130 µM at Recombinant Cat D and 0.00474 µM in assay [1].

As for `NC1=N[C@](CF)(c2cc(NC(=O)c3ccc(Cl)cn3)ccc2F)[C@@H]2C[C@]2(Cn2ccnn2)S1` [Example 722, N-(3-((1S,5S,6S)-3-amino-5-(fluoromethyl)-1-(1H-1,2,3-triazol-1-ylmethyl)-2-thia-4-azabicyclo[4.1.0]hept-3-en-5-yl)-4-fluorophenyl)-5-chloro-2-pyridinecarboxamide], the IC50 was 0.0118 µM at human recombinant BACE1, less than 0.00203 µM at human recombinant BACE2, 684 µM on Recombinant Cat D and 0.0209 µM in assay [1].

As for `N#CCC[C@]12C[C@H]1[C@@](CF)(c1cc(NC(=O)c3ccc(Cl)cn3)ccc1F)N=C(N)S2` [Example 723, N-(3-((1S,5S,6S)-3-amino-1-(2-cyanoethyl)-5-(fluoromethyl)-2-thia-4-azabicyclo[4.1.0]hept-3-en-5-yl)-4-fluorophenyl)-5-chloro-2-pyridinecarboxamide], the IC50 at human recombinant BACE1 was 0.00169 µM; on human recombinant BACE2, less than 0.00203 µM; on Recombinant Cat D, 282 µM; in assay [1], 0.00431 µM.

For `C#CCOc1cnc2c(Nc3ccc(F)c([C@@]4(CF)N=C(N)S[C@@]5(Cn6cc(C)nn6)C[C@H]54)c3)nccc2n1` [Example 724, N-(3-((1S,5S,6S)-3-amino-5-(fluoromethyl)-1-((4-methyl-1H-1,2,3-triazol-1-yl)methyl)-2-thia-4-azabicyclo[4.1.0]hept-3-en-5-yl)-4-fluorophenyl)-2-(2-propyn-1-yloxy)pyrido[3,4-b]pyrazin-5-amine], the IC50 on human recombinant BACE1 was determined as 0.00208 µM; at human recombinant BACE2, 0.0746 µM; on Recombinant Cat D it was 1080 µM; in assay [1], 0.00712 µM.

Turning to `Cc1cnnn1C[C@]12C[C@H]1[C@@](CF)(c1cc(NC(=O)c3ccc(Cl)cn3)ccc1F)N=C(N)S2` [Example 725, N-(3-((1S,5S,6S)-3-amino-5-(fluoromethyl)-1-((5-methyl-1H-1,2,3-triazol-1-yl)methyl)-2-thia-4-azabicyclo[4.1.0]hept-3-en-5-yl)-4-fluorophenyl)-5-chloro-2-pyridinecarboxamide], the IC50 at human recombinant BACE1 was found to be 0.00565 µM; at human recombinant BACE2 it was 0.00251 µM; at Recombinant Cat D, 1160 µM; in assay [1] it was 0.0148 µM.

As for `COC[C@]12C[C@H]1[C@@](C)(c1cc(Nc3nccc4cc(OCc5cnco5)cnc34)cc(F)c1F)N=C(N)S2` [Example 726, N-(3-((1S,5S,6S)-3-amino-1-(methoxymethyl)-5-methyl-2-thia-4-azabicyclo[4.1.0]hept-3-en-5-yl)-4,5-difluorophenyl)-3-(1,3-oxazol-5-ylmethoxy)-1,7-naphthyridin-8-amine], the IC50 is 0.179 µM on human recombinant BACE1, 0.641 µM at human recombinant BACE2, greater than 400 µM on Recombinant Cat D and 0.406 µM in assay [1].

`COC[C@]12C[C@H]1[C@@](C)(c1cc(Nc3nccc4cc(OCC#N)cnc34)cc(F)c1F)N=C(N)S2` [Example 729, ((8-((3-((1S,5S,6S)-3-amino-1-(methoxymethyl)-5-methyl-2-thia-4-azabicyclo[4.1.0]hept-3-en-5-yl)-4,5-difluorophenyl)amino)-1,7-naphthyridin-3-yl)oxy)acetonitrile]: the IC50 on human recombinant BACE1 stood at 0.0282 µM; on human recombinant BACE2, 0.385 µM; on Recombinant Cat D it was 856 µM; in assay [1], 0.0457 µM.

As to `COC[C@]12C[C@H]1[C@@](C)(c1cc(Nc3nccc4cc(OCc5ncon5)cnc34)cc(F)c1F)N=C(N)S2` [Example 730, N-(3-((1S,5S,6S)-3-amino-1-(methoxymethyl)-5-methyl-2-thia-4-azabicyclo[4.1.0]hept-3-en-5-yl)-4,5-difluorophenyl)-3-(1,2,4-oxadiazol-3-ylmethoxy)-1,7-naphthyridin-8-amine], the IC50 on human recombinant BACE1 is 0.0157 µM; at human recombinant BACE2, 1.03 µM; on Recombinant Cat D, 1380 µM; in assay [1] it was 0.0759 µM.

Consider `COC[C@]12C[C@H]1[C@@](C)(c1cc(Nc3nccc4cc(OCC(F)(F)C(F)F)cnc34)cc(F)c1F)N=C(N)S2` [Example 731, N-(3-((1S,5S,6S)-3-amino-1-(methoxymethyl)-5-methyl-2-thia-4-azabicyclo[4.1.0]hept-3-en-5-yl)-4,5-difluorophenyl)-3-(2,2,3,3-tetrafluoropropoxy)-1,7-naphthyridin-8-amine], for which the IC50 on human recombinant BACE1 came to 0.0668 µM; at human recombinant BACE2, 3.83 µM; at Recombinant Cat D, 1100 µM; in assay [1] it was 1.3 µM.

As for `COC[C@]12C[C@H]1[C@@](C)(c1cc(NC(=O)c3ccc(OCC(F)(F)C(F)F)cn3)cc(F)c1F)N=C(N)S2` [Example 732, N-(3-((1S,5S,6S)-3-amino-1-(methoxymethyl)-5-methyl-2-thia-4-azabicyclo[4.1.0]hept-3-en-5-yl)-4,5-difluorophenyl)-5-(2,2,3,3-tetrafluoropropoxy)-2-pyridinecarboxamide], the IC50 turned out to be 0.00339 µM on human recombinant BACE1, 0.737 µM on human recombinant BACE2, 600 µM on Recombinant Cat D and 0.034 µM in assay [1].

`C#CCOc1cnc2c(Nc3cc(F)c(F)c([C@@]4(C)N=C(N)S[C@@]5(COC)C[C@H]54)c3)nccc2c1` [Example 733, N-(3-((1S,5S,6S)-3-amino-1-(methoxymethyl)-5-methyl-2-thia-4-azabicyclo[4.1.0]hept-3-en-5-yl)-4,5-difluorophenyl)-3-(2-propyn-1-yloxy)-1,7-naphthyridin-8-amine]: the IC50 was found to be 0.00638 µM on human recombinant BACE1, 0.0642 µM at human recombinant BACE2, 1520 µM at Recombinant Cat D and 0.014 µM in assay [1].
